In one data set the test system is human artery wall cells. Put plainly: Lipoproteins from 5F-injected mice tested in human artery wall cell cocultures (lipid hydroperoxides, monocyte chemotactic activity). The format is cell-based. As to conditions: 20 μg/mouse/day. On the procedure: Cocultures of human artery wall cells, monocyte isolation, isolation of lipoproteins by ultracentrifugation from the plasma of normal human donors or from mouse plasma by FPLC, and determination of lipid hydroperoxides and monocyte chemotactic activity were performed according to standard methods. All human subject participation was with informed consent approved by the UCLA Human Subjects Protection Committee. The protocol for testing mouse lipoproteins in the coculture was also performed as follows: Briefly, LDL and HDL were isolated by FPLC from mouse plasma from mice fed the atherogenic diet and injected with vehicle (PBS), or with peptide 5F at 20 μg/mouse/day. The cocultures were treated with human LDL at 200 μg/ml LDL protein, or mouse LDL at 200 μg/ml or with 200 μg/ml human LDL+human HDL at 350 μg/ml of HDL protein or mouse HDL at 300 μg/ml or with mouse HDL alone at 300 μg/ml. […] The supernatants were collected and analyzed for Auerbach lipid hydroperoxide equivalents.

Data set [1] is described as follows: Survival, toxicity, body and liver weights after 16 weeks of injection.
Protocol: Mice were acquired at six weeks of age, and randomized into groups of 20, except that a negative control group of 10 received no treatments and was given standard rodent chow. At eight weeks of age, the treatment groups were placed on a modified Thomas-Hartroft atherogenic diet (#TD88051; Teklad, Madison, Wis.), and injections were begun. […] Animals were injected intraperitoneally daily for 16 weeks, including weekends and holidays.
At the end of the study (week 16), at the last bleeding, the heart and the liver were excised. […] The livers were removed and weighed.
The mark [2] stands for this setting: after 16 weeks, atherogenic diet, daily i.p., mean ± SEM.

The source of these data is US7144862B2, “Orally administered peptides to ameliorate atherosclerosis” (The Regents of the University of California, priority 2000, dated 2006).

Turning to “Ac-DWLKAFYDKVFEKFKEFF-NH2 [Peptide 5F, Ac-D-W-L-K-A-F-Y-D-K-V-F-E-K-F-K-E-F-F-NH2]”, in the data set on human artery wall cells (mouse HDL 300 μg/ml with human LDL 200 μg/ml), the “ability of HDL from injected mice to inhibit human LDL oxidation and LDL-induced monocyte chemotactic activity” value was “as effective in inhibiting human LDL oxidation and preventing LDL-induced monocyte chemotactic activity in the cocultures as was normal human HDL”. For the same substance, in the data set with human artery wall cells (mouse LDL 200 μg/ml), the “oxidation of, and monocyte chemotactic activity induced by, LDL from injected mice versus PBS” value is “less readily oxidized and induced less monocyte chemotactic activity”. In data set [1] (setting [2]), the “Body Weight” value stood at 21.60 ± 0.28 g, the “Liver Weight” value was found to be 1.61 ± 0.04 g and the “Liver: Body (percentage)” value amounted to 7.46 ± 0.23%. Also, in data set [1] (during the prolonged diet studies, groups of 20), the “mice died from unexplained causes” value is given as “one”.
